Measurements reported in PubChem BioAssay AID330 (DTP/NCI, 2004).
“And” between values parts separate entries of the source, which are not always exact repeats. Equal entries are not always repeated. Toxic doses and inconclusive results are not listed.

System: P388 leukemia ip, CD2F1 mice, survival T/C
Assay: NCI In Vivo Anticancer Drug Screen. Data for tumor model P388 Leukemia (intraperitoneal) in CD2F1 (CDF1) mice
Conditions: endpoint: median survival time, higher = longer survival
Summary of the method: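 Mice carrying the transplanted tumor received test compound or vehicle. Survival was recorded in each group, and the value is the treated-group measurement divided by that of the vehicle-treated control group.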

[1] = dose: 60.0 mg/kg/injection, schedule: Q01DX005 (ip), vehicle: Klucel (hydroxypropylcellulose) (HPC)
[2] = dose: 120.0 mg/kg/injection, schedule: Q01DX005 (ip), vehicle: Klucel (hydroxypropylcellulose) (HPC)
[3] = dose: 50.0 mg/kg/injection, schedule: Q01DX005 (ip), vehicle: Klucel (hydroxypropylcellulose) (HPC)
[4] = dose: 100.0 mg/kg/injection, schedule: Q01DX005 (ip), vehicle: Klucel (hydroxypropylcellulose) (HPC)

## CO[C@@]12[C@H](COC(N)=O)C3=C(C(=O)C(C)=C(N)C3=O)N1C[C@@H]1N[C@@H]12
dose: 0.25 mg/kg/injection, schedule: Q01DX009 (ip), vehicle: saline with Tween-80
  T/C: 160 % of control and 166 % of control
dose: 0.5 mg/kg/injection, schedule: Q01DX009 (ip), vehicle: saline with Tween-80
  T/C: 150 % of control and 157 % of control and 210 % of control
dose: 0.5 mg/kg/injection, schedule: Q04DX003 (ip), vehicle: saline
  T/C: 112 % of control
dose: 0.65 mg/kg/injection, schedule: Q04DX002 (ip), vehicle: saline
  T/C: 160 % of control
dose: 0.75 mg/kg/injection, schedule: Q04DX003 (ip), vehicle: saline
  T/C: 150 % of control and 163 % of control
dose: 0.75 mg/kg/injection, schedule: Q04DX003 (ip), vehicle: water
  T/C: 170 % of control
dose: 0.78 mg/kg/injection, schedule: Q04DX003 (ip), vehicle: saline
  T/C: 152 % of control and 153 % of control
dose: 0.97 mg/kg/injection, schedule: Q04DX003 (ip), vehicle: saline
  T/C: 150 % of control
dose: 1.0 mg/kg/injection, schedule: Q01DX009 (ip), vehicle: saline with Tween-80
  T/C: 166 % of control and 169 % of control
dose: 1.08 mg/kg/injection, schedule: Q04DX002 (ip), vehicle: saline
  T/C: 164 % of control
dose: 1.1 mg/kg/injection, schedule: Q04DX003 (ip), vehicle: water
  T/C: 159 % of control
dose: 1.3 mg/kg/injection, schedule: Q04DX002 (ip), vehicle: saline
  T/C: 163 % of control
dose: 1.3 mg/kg/injection, schedule: Q04DX003 (ip), vehicle: saline
  T/C: 174 % of control and 180 % of control
dose: 1.5 mg/kg/injection, schedule: Q04DX003 (ip), vehicle: saline
  T/C: 155 % of control and 161 % of control and 183 % of control
dose: 1.5 mg/kg/injection, schedule: Q04DX003 (ip), vehicle: water
  T/C: 163 % of control and 200 % of control
dose: 1.62 mg/kg/injection, schedule: Q04DX003 (ip), vehicle: saline
  T/C: 163 % of control
dose: 1.8 mg/kg/injection, schedule: Q04DX002 (ip), vehicle: saline
  T/C: 175 % of control
dose: 1.8 mg/kg/injection, schedule: Q04DX003 (ip), vehicle: water
  T/C: 174 % of control
dose: 2.0 mg/kg/injection, schedule: Q01DX009 (ip), vehicle: saline with Tween-80
  T/C: 104 % of control and 120 % of control
dose: 2.0 mg/kg/injection, schedule: Q04DX003 (ip), vehicle: saline
  T/C: 163 % of control
dose: 2.16 mg/kg/injection, schedule: Q04DX002 (ip), vehicle: saline
  T/C: 162 % of control
dose: 2.16 mg/kg/injection, schedule: Q04DX003 (ip), vehicle: saline
  T/C: 155 % of control (2×) and 174 % of control
dose: 2.7 mg/kg/injection, schedule: Q04DX003 (ip), vehicle: saline
  T/C: 183 % of control and 204 % of control
dose: 3.0 mg/kg/injection, schedule: Q01DX001 (ip), vehicle: saline
  T/C: 169 % of control
dose: 3.0 mg/kg/injection, schedule: Q04DX002 (ip), vehicle: saline
  T/C: 212 % of control
dose: 3.0 mg/kg/injection, schedule: Q04DX003 (ip), vehicle: water
  T/C: 190 % of control and 197 % of control
dose: 3.5 mg/kg/injection, schedule: Q01DX001 (ip), vehicle: carboxymethylcellulose (CMC)
  T/C: 183 % of control
dose: 3.6 mg/kg/injection, schedule: Q01DX001 (ip), vehicle: water
  T/C: 175 % of control and 176 % of control
dose: 3.6 mg/kg/injection, schedule: Q04DX002 (ip), vehicle: saline
  T/C: 159 % of control
dose: 3.6 mg/kg/injection, schedule: Q04DX003 (ip), vehicle: saline
  T/C: 184 % of control and 220 % of control and 235 % of control
dose: 4.0 mg/kg/injection, schedule: Q01DX001 (ip), vehicle: saline
  T/C: 156 % of control and 167 % of control
dose: 4.0 mg/kg/injection, schedule: Q04DX003 (ip), vehicle: saline
  T/C: 150 % of control
dose: 4.4 mg/kg/injection, schedule: Q01DX001 (ip), vehicle: saline
  T/C: 158 % of control
dose: 4.5 mg/kg/injection, schedule: Q04DX003 (ip), vehicle: saline
  T/C: 219 % of control
dose: 4.7 mg/kg/injection, schedule: Q01DX001 (ip), vehicle: saline
  T/C: 174 % of control
dose: 5.0 mg/kg/injection, schedule: Q04DX002 (ip), vehicle: saline
  T/C: 157 % of control
dose: 5.0 mg/kg/injection, schedule: Q04DX003 (ip), vehicle: water
  T/C: 228 % of control
dose: 5.3 mg/kg/injection, schedule: Q01DX001 (ip), vehicle: carboxymethylcellulose (CMC)
  T/C: 191 % of control
dose: 5.4 mg/kg/injection, schedule: Q01DX001 (ip), vehicle: water
  T/C: 184 % of control and 206 % of control and 216 % of control
dose: 6.0 mg/kg/injection, schedule: Q01DX001 (ip), vehicle: saline
  T/C: 162 % of control and 166 % of control and 255 % of control
dose: 6.0 mg/kg/injection, schedule: Q04DX002 (ip), vehicle: saline
  T/C: 120 % of control
dose: 6.7 mg/kg/injection, schedule: Q01DX001 (ip), vehicle: saline
  T/C: 188 % of control
dose: 7.0 mg/kg/injection, schedule: Q01DX001 (ip), vehicle: saline
  T/C: 165 % of control
dose: 7.5 mg/kg/injection, schedule: Q04DX003 (ip), vehicle: saline
  T/C: 122 % of control
dose: 8.0 mg/kg/injection, schedule: Q01DX001 (ip), vehicle: water
  T/C: 178 % of control and 222 % of control and 280 % of control
dose: 8.3 mg/kg/injection, schedule: Q04DX003 (ip), vehicle: water
  T/C: 87 % of control

## COc1ccc(C2(c3ccc(OC)cc3)N=NC3(C)CC32)cc1 (centres undefined)
dose: 100.0 mg/kg/injection, schedule: Q01DX001 (ip), vehicle: saline with Tween-80
  T/C: 92 % of control
dose: 200.0 mg/kg/injection, schedule: Q01DX001 (ip), vehicle: saline with Tween-80
  T/C: 89 % of control
dose: 400.0 mg/kg/injection, schedule: Q01DX001 (ip), vehicle: saline with Tween-80
  T/C: 86 % of control

## CCOC(=O)CC(=O)OC(C)(C)C
dose: 25.0 mg/kg/injection, schedule: Q01DX009 (ip), vehicle: saline with Tween-80
  T/C: 97 % of control
dose: 50.0 mg/kg/injection, schedule: Q01DX009 (ip), vehicle: saline with Tween-80
  T/C: 106 % of control
dose: 100.0 mg/kg/injection, schedule: Q01DX009 (ip), vehicle: saline with Tween-80
  T/C: 104 % of control
dose: 200.0 mg/kg/injection, schedule: Q01DX009 (ip), vehicle: saline with Tween-80
  T/C: 100 % of control

## COc1ccc(C2OC(=N)C(=S)N2C)c(OC)c1 (centres undefined)
[1]
  T/C: 102 % of control
[2]
  T/C: 104 % of control
dose: 240.0 mg/kg/injection, schedule: Q01DX005 (ip), vehicle: Klucel (hydroxypropylcellulose) (HPC)
  T/C: 101 % of control

## Fc1c2ccccc2c2ccc3cccc4ccc1c2c43
dose: 50.0 mg/kg/injection, schedule: Q04DX002 (ip), vehicle: saline
  T/C: 103 % of control and 104 % of control
dose: 100.0 mg/kg/injection, schedule: Q04DX002 (ip), vehicle: saline with Tween-80
  T/C: 117 % of control
dose: 100.0 mg/kg/injection, schedule: Q04DX002 (ip), vehicle: saline
  T/C: 100 % of control and 110 % of control
dose: 200.0 mg/kg/injection, schedule: Q04DX002 (ip), vehicle: saline
  T/C: 100 % of control and 113 % of control
dose: 400.0 mg/kg/injection, schedule: Q04DX002 (ip), vehicle: saline
  T/C: 103 % of control

## CCOc1ccc(C(C)c2cc3c(cc2OCCO)OCO3)cc1 (centres undefined)
dose: 12.5 mg/kg/injection, schedule: Q01DX005 (ip), vehicle: Klucel (hydroxypropylcellulose) (HPC)
  T/C: 109 % of control
dose: 25.0 mg/kg/injection, schedule: Q01DX005 (ip), vehicle: Klucel (hydroxypropylcellulose) (HPC)
  T/C: 97 % of control
[3]
  T/C: 104 % of control
[4]
  T/C: 103 % of control
dose: 200.0 mg/kg/injection, schedule: Q01DX005 (ip), vehicle: Klucel (hydroxypropylcellulose) (HPC)
  T/C: 102 % of control

## CNC(=O)NC(c1ccc2c(c1)OCO2)c1cc2c(cc1O)OCO2 (centres undefined)
[1]
  T/C: 87 % of control
[2]
  T/C: 87 % of control

## CCNC1CCC(Nc2ccnc3cc(Cl)ccc23)CC1 (centres undefined)
[3]
  T/C: 95 % of control
[4]
  T/C: 87 % of control

## N#CC(C#N)=NNc1c(Br)cc(Cl)cc1Br
dose: 1.56 mg/kg/injection, schedule: Q01DX009 (ip), vehicle: Klucel (hydroxypropylcellulose) (HPC)
  T/C: 104 % of control
dose: 3.12 mg/kg/injection, schedule: Q01DX009 (ip), vehicle: Klucel (hydroxypropylcellulose) (HPC)
  T/C: 105 % of control
dose: 6.25 mg/kg/injection, schedule: Q01DX009 (ip), vehicle: Klucel (hydroxypropylcellulose) (HPC)
  T/C: 116 % of control and 97 % of control

## Cl/N=C1/C=CC=C/C1=N/Cl
dose: 50.0 mg/kg/injection, schedule: Q01DX005 (ip), vehicle: saline
  T/C: 106 % of control
dose: 100.0 mg/kg/injection, schedule: Q01DX005 (ip), vehicle: saline
  T/C: 104 % of control
dose: 200.0 mg/kg/injection, schedule: Q01DX005 (ip), vehicle: saline
  T/C: 101 % of control

## CCOP(=O)(OCC)C(=O)c1ccccc1
dose: 60.0 mg/kg/injection, schedule: Q01DX005 (ip), vehicle: saline
  T/C: 100 % of control
dose: 120.0 mg/kg/injection, schedule: Q01DX005 (ip), vehicle: saline
  T/C: 103 % of control
dose: 240.0 mg/kg/injection, schedule: Q01DX005 (ip), vehicle: saline
  T/C: 105 % of control
